Converted amounts (≈) assume the structure as drawn.
How the values were obtained:
[1] = system: KB; assay: Cytotoxicity against human KB cells; type: functional, cell-based; conditions: Homo sapiens, KB; read-out: IC50
[2] = system: CNE-2; assay: Cytotoxicity against human CNE-2 cells incubated for 48 hrs by MTT assay; type: functional, cell-based; conditions: CNE-2, 48 h
[3] = Cytotoxicity against mouse P388 cells; type: functional, cell-based
[4] = system: KB; assay: Cytotoxicity against human Vincristine-resistant KB cells; type: functional, cell-based; conditions: pooled result: one value given for 6 cell lines, strains, targets or settings
[5] = system: HL-60; assay: Cytotoxicity against human HL-60 cells; type: functional, cell-based; conditions: Homo sapiens, HL-60; read-out: IC50
[6] = system: L5178Y; assay: Cytotoxicity against mouse L5178Y cells incubated 72 hrs; type: functional, cell-based; conditions: for IC50: 72 h
[7] = system: HepG2; assay: Cytotoxicity against human HepG2 cells after 48 hrs incubation by SRB assay; type: functional, cell-based; conditions: HepG2, 48 h
[8] = system: Hep 3B2; assay: Cytotoxicity against human Hep3B cells after 48 hrs incubation by SRB assay; type: functional, cell-based
[9] = system: MDA-MB-231; assay: Growth inhibition of human MDA-MB-231 cells incubated for 72 hrs by SRB assay; type: functional, cell-based; conditions: MDA-MB-231, 72 h
[10] = system: A549; assay: Growth inhibition of human A549 cells incubated for 72 hrs by SRB assay; type: functional, cell-based; conditions: A549, 72 h
[11] = system: HT-29; assay: Growth inhibition of human HT-29 cells incubated for 72 hrs by SRB assay; type: functional, cell-based; conditions: HT-29, 72 h
[12] = system: A549; assay: Cytotoxicity against human A549 cells incubated for 48 hrs by neutral red dye based assay; type: functional, cell-based; conditions: A549, 48 h
[13] = system: HCT-116; assay: Cytotoxicity against human HCT-116 cells incubated for 48 hrs by neutral red dye based assay; type: functional, cell-based; conditions: HCT-116, 48 h
[14] = system: MCF7; assay: Cytotoxicity against human MCF7 cells incubated for 48 hrs by neutral red dye based assay; type: functional, cell-based; conditions: MCF7, 48 h
[15] = system: HCT-116; assay: Cytotoxicity against human HCT-116 cells; type: functional, cell-based
[16] = system: SK-OV-3; assay: Antiproliferative activity against human SK-OV-3 cells; type: functional, cell-based
[17] = system: A2780; assay: Antiproliferative activity against human A2780 cells; type: functional, cell-based
[18] = system: A549; assay: Cytotoxicity against human A549 cells; type: functional, cell-based
[19] = system: NCI-H1299; assay: Cytotoxicity against human NCI-H1299 cells; type: functional, cell-based
[20] = system: L1210; assay: Cytotoxicity against mouse L1210 cells; type: functional, cell-based
[21] = system: MCF7; assay: Cytotoxicity against human MCF7 cells; type: functional, cell-based
[22] = molecular target: T1, DNA topoisomerase 1 (Homo sapiens, UniProt P11387); assay: Inhibition of Topoisomerase 1 (unknown origin)
T1 sequence (P11387 whole entry): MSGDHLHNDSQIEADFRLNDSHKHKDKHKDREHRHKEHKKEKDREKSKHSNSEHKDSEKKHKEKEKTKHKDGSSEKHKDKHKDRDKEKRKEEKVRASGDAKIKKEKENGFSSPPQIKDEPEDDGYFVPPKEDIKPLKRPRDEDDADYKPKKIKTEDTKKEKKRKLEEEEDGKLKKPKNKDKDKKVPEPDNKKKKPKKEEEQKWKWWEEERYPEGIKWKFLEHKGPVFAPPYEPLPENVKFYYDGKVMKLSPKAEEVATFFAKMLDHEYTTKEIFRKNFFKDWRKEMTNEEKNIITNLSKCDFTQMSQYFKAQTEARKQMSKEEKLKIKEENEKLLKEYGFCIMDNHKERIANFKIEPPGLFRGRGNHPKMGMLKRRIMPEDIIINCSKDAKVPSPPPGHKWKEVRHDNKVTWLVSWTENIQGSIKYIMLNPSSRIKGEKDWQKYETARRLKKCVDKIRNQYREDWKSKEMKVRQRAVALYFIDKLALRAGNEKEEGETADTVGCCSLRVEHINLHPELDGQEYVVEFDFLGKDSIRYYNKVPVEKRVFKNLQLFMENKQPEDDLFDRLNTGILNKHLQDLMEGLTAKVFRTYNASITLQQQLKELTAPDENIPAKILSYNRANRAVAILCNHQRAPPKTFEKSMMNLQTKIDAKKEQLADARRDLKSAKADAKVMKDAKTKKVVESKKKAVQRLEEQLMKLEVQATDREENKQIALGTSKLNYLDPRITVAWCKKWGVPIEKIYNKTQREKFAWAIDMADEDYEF

Q: With `CC(C)CC(N)c1nccc2c1[nH]c1cc(Br)ccc12` (centres undefined) [EUDISTALBIN A] as the molecule, how does the IC50 [1] read?
A: 3.2 µg/mL (≈ 9.63 µM)

Q: For `COc1c(O)c(=O)n2c3ccccc3c3ccnc1c32`, which IC50 [2] is on record?
A: 7.96 µg/mL (≈ 29.9 µM)

Q: Which IC50 [2] does the source give for `COc1c(OC)c2nccc3c4ccccc4n(c1=O)c23` [4,5-DIMETHOXYCANTHIN-6-ONE] here?
A: 9.86 µg/mL (≈ 35.2 µM)

Q: With `COc1ccc2c3cc[n+]([O-])c4ccc(=O)n(c2c1)c34` as the molecule, how does the IC50 [3] read?
A: 3.8 µg/mL (≈ 14.3 µM)

Q: What about the IC50 [4] of the same molecule?
A: 3.8 µg/mL (≈ 14.3 µM)

Q: Which IC50 [5] does the source give for `COc1ccc2c3c([nH]c2c1)-c1c(C(=O)c2ncc4ccccc4n2)ccn1CC3` here?
A: 13.6 µM

Q: With `[O-][n+]1ccc2c([nH]c3ccccc32)c1C1=C[C@@]2(O)CC/C=C\CCCCN3CC[C@@H]1[C@]1(CC/C=C\CCCCN[C@H]12)C3` as the molecule, how does the EC50 ([6]; time 72 hrs, read-out: ED50 (the source's name)) read?
A: 3.2 µg/mL (≈ 5.65 µM)

Q: Which results are given for `O=c1ccc2nccc3c4ccc(O)cc4n1c23`?
A: IC50 [3]: 1.5 µg/mL (≈ 6.35 µM); IC50 [4]: 1.5 µg/mL (≈ 6.35 µM)

Q: Which IC50 [7] does the source give for `COc1cnc(C(=O)[C@H](CC(=O)c2nccc3c2[nH]c2ccccc23)OC)c2[nH]c3ccccc3c12` here?
A: 43.9 µM

Q: What about the IC50 [8] of the same molecule?
A: 18.6 µM

Q: Which IC50 [5] does the source give for `COc1ccc2c(c1)NC1C2CCN2C(=O)[C@]34C5Nc6cc(OC)ccc6C5CCN3[C@]12C4(C)C` (some centres undefined) here?
A: 5.8 µM

Q: Which results are given for `COc1cnc(C(=O)[C@@H](Cc2nccc3c2[nH]c2ccccc23)OC)c2[nH]c3ccccc3c12`?
A: IC50 [7]: 33.9 µM; IC50 [8]: > 50 µM

Q: For `O=C(O)c1c(-c2c[nH]c3cc(O)ccc23)ncc2[nH]c3ccc(O)cc3c12`, which IC50 [9] is on record?
A: 25 µg/mL (≈ 69.6 µM)

Q: And the IC50 [10]?
A: 30 µg/mL (≈ 83.5 µM)

Q: And the IC50 [11]?
A: 42 µg/mL (≈ 117 µM)

Q: With `O=C1NCCc2c1[nH]c1ccccc21` as the molecule, how does the IC50 [12] read?
A: 10.1 µg/mL (≈ 54.3 µM)

Q: And the IC50 [13]?
A: 7.45 µg/mL (≈ 40 µM)

Q: And the IC50 [14]?
A: 8.27 µg/mL (≈ 44.4 µM)

Q: With `O=c1ccc2c3c(cc[n+]2[O-])c2ccc(O)cc2n13` as the molecule, how does the IC50 [3] read?
A: 3.5 µg/mL (≈ 13.9 µM)

Q: And the IC50 [4]?
A: 3.5 µg/mL (≈ 13.9 µM)

Q: For `COc1ccc2c3c([nH]c2c1)[C@]1(NCC3)C(C)=C(C)c2nc3ccccc3c(=O)n21`, which IC50 [5] is on record?
A: 9.4 µM

Q: Which IC50 [15] does the source give for `COc1cccc2c1C(=O)c1c(O)c3c(c(O)c1C2=O)C[C@@](O)(C(=O)CO)C[C@@H]3O[C@H]1C[C@H](N)[C@H](O)[C@H](C)O1` [DOXORUBICIN] here?
A: 0.39 µM

Q: What does the source list for `COc1cnc(C(=O)[C@H](Cc2nccc3c2[nH]c2ccccc23)OC)c2[nH]c3ccccc3c12`?
A: IC50 [7]: 27.5 µM; IC50 [8]: 46.2 µM

Q: For `COc1nccc2c1[nH]c1ccccc12`, which IC50 [16] is on record?
A: 22.3 µg/mL (≈ 112 µM)

Q: And the IC50 [17]?
A: 9.72 µg/mL (≈ 49 µM)

Q: With `C=Cc1nccc2c1[nH]c1c(O)cccc12` as the molecule, how does the IC50 [3] read?
A: 0.1 µg/mL (≈ 0.476 µM)

Q: Which IC50 [6] does the source give for `CN[C@H](CSC)c1nccc2c1[nH]c1ccc(O)c(Br)c12` [EUDISTOMIDIN C] here?
A: 0.42 µg/mL (≈ 1.15 µM)

Q: With `COc1ccc(CCNC(=O)c2cc3c([nH]c4ccccc43)c(C(C)=O)n2)cc1` [MARINACARBOLINE A] as the molecule, how does the IC50 [18] read?
A: 24.4 µM

Q: What about the IC50 [15] of the same molecule?
A: 24.4 µM

Q: What about the IC50 [19] of the same molecule?
A: 24.4 µM

Q: For `Oc1ccc2[nH]c3c(C4=C[C@@]5(O)CC/C=C\CCCCN6CC[C@@H]4[C@]4(CC7/C=C\CCCCN7[C@H]45)C6)nccc3c2c1` (some centres undefined), which IC50 [1] is on record?
A: 7.3 µg/mL (≈ 12.9 µM)

Q: With `O[C@]12C=C(c3nccc4c3[nH]c3ccccc34)[C@@H]3CCN(CCCC/C=C\CC1)C[C@@]31CC/C=C\CCCCN[C@H]12` [MANZAMINE J] as the molecule, how does the IC50 [20] read?
A: 2.6 µg/mL (≈ 4.72 µM)

Q: For `Oc1ccc2[nH]c3c(C4=C[C@@]5(O)CC/C=C\CCCCN6CC[C@@H]4[C@@]4(C6)CC67CCC(CCCN6[C@H]45)O7)nccc3c2c1`, which IC50 [1] is on record?
A: 7.9 µg/mL (≈ 13.6 µM)

Q: Which IC50 [21] does the source give for `CC(C=O)CNc1nccc(-c2nccc3c2[nH]c2ccccc23)n1` (centres undefined) here?
A: 6.05 µM

Q: What about the IC50 [15] of the same molecule?
A: 3.35 µM

Q: Which IC50 [18] does the source give for `CC(=O)c1nc(C(=O)NCCc2ccccc2)cc2c1[nH]c1ccccc12` here?
A: 37.4 µM

Q: What about the IC50 [15] of the same molecule?
A: 37.4 µM

Q: And the IC50 [19]?
A: 37.4 µM

Q: For `Cn1c2cnccc2c2c(Br)c(O)ccc21`, which IC50 [20] is on record?
A: 2.4 µg/mL (≈ 8.66 µM)

Q: And the IC50 [6]?
A: 1.8 µg/mL (≈ 6.5 µM)

Q: For `C1=C\CC[C@]23CN4CCCC/C=C\CC[C@@]5(O[C@H]5[C@@H](c5nccc6c5[nH]c5ccccc56)[C@@H]2CC4)[C@@H]3NCCCC/1` [MANZAMINE B], which IC50 [3] is on record?
A: 6 µg/mL (≈ 10.9 µM)

Q: Which IC50 [22] does the source give for `c1ccc2c(c1)[nH]c1cnccc12` [NORHARMANE] here?
A: 31 µM

Q: With `O[C@]12C=C(C3NCCc4c3[nH]c3ccccc43)[C@@H]3CCN(CCCC/C=C\CC1)C[C@@]31CC/C=C\CCCCN[C@H]12` (some centres undefined) as the molecule, how does the IC50 [20] read?
A: 1.3 µg/mL (≈ 2.34 µM)

Q: For `CNC(=O)CCCc1nccc2c1[nH]c1ccccc12`, which IC50 [12] is on record?
A: 2.15 µg/mL (≈ 8.04 µM)

Q: What about the IC50 [13] of the same molecule?
A: 0.67 µg/mL (≈ 2.51 µM)

Q: What about the IC50 [14] of the same molecule?
A: 3.5 µg/mL (≈ 13.1 µM)

Source: ChEMBL document CHEMBL5241090, “A comprehensive overview of β-carbolines and its derivatives as anticancer agents” (Eur J Med Chem, 2021)
